According to patent publication US20090105172A1, “Stabilized Aptamers to PSMA and Their Use as Prostate Cancer Therapeutics” (priority 2005, published 2009):
Strand notation (5' to 3'): a small letter for the sugar, then the base; units joined by * are phosphorothioate-linked, units joined directly phosphodiester-linked; [ ] holds rarer units or linkages, { } end groups; capitals alone tell only the bases. {NH2} = amine modification, hexylamine terminal group for chemical coupling; [invdT] = inverted (3'-3') thymidine; d = 2'-deoxy (DNA); m = 2'-O-methyl; r = 2'-OH (RNA); f = 2'-fluoro

Key:
[1] = docetaxel in combination with prednisone (cited clinical trial, not the aptamer), every three weeks; cited from earlier work
[2] = Plasma stability time course assay; type: in vitro ADME; details: 95% human plasma, 37° C.
Protocol: Plasma stability of each construct was measured using a plasma stability time course assay over 0, 1, 3, 10, 30, and 100 hours. A reaction was set up for each aptamer tested in an eppendorf tube using 95% human plasma (20 μl per time point), an appropriate concentration of aptamer (determined by the highest predicted dosing level (CMax)), and a sufficient amount of spiked 5′-end labeled aptamer such that a 1:10 dilution of the reaction will be over 1000 cpm, brought to total volume with 1×PBS. When assembling the reaction, the plasma was added last, and the reactions were immediately added to a 37° C. heat block. A reaction for each aptamer tested containing 1×PBS instead of plasma was used as a 0 hour time point. At each designated time point, 20 μl was withdrawn from each reaction and added to an appropriately labeled eppendorf tube containing 200 μl of formamide loading dye, and was immediately snap frozen in liquid nitrogen and stored at −20° C. After all the samples were collected 20 μl of each plasma sample/loading dye was aliquoted into separate tubes, and 2 μl of 1% SDS was added to each tube (final SDS concentration 0.1%). The samples containing 0.1% SDS were heated at 90° C. for 10-15 minutes. […]
The percentage of the parent aptamer remaining for each time-point was determined by quantifying the parent aptamer band and dividing by the total counts in the lane. […]

PSMA NAALADase activity = PSMA NAALADase activity (Homo sapiens, UniProt Q04609); assay: NAALADase inhibition assay; type: biochemical; details: relative to parent
PSMA NAALADase activity, sequence (Q04609 with tags, fused parts or gaps limits assumed): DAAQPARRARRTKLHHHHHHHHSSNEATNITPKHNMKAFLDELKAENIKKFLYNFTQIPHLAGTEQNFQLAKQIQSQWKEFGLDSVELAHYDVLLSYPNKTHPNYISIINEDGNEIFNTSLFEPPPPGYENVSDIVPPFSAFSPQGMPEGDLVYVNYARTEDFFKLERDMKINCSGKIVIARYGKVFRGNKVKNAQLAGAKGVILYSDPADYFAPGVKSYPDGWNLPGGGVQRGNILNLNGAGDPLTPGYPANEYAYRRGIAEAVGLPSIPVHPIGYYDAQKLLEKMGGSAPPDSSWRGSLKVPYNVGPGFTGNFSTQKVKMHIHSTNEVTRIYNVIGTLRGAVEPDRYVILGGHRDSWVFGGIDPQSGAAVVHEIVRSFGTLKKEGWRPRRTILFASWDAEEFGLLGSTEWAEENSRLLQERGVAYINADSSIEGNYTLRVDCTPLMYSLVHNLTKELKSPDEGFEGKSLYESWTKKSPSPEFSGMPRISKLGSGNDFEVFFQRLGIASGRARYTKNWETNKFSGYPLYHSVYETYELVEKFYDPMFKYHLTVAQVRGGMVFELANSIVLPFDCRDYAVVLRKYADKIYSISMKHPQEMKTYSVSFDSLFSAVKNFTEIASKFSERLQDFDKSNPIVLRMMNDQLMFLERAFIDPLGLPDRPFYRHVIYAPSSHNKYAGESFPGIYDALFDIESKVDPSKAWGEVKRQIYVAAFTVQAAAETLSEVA
Protocol: These point mutant constructs were assessed for activity in terms of inhibition of PSMA NAALADase activity. The NAALADase assay was performed in 96 well format. PSMA aptamers were serially diluted in 1× reaction buffer (40 mM Tris-HCl, pH 7.4, 0.1 mM ZnSO4, 0.1 mg/in L BSA) in a standard 96 well plate to be tested at a final concentration range from 30 pM to 1 μM. The enzyme was prepared by diluting 30 μL of 100 nM PSMA into 8 mL of reaction buffer, and kept cool on ice. The substrate was prepared by adding 19 μl of NAAG [Glutamate-3,4-^3H], 50.8 Ci/mmol, 19.7 μM (Perkin-Elmer, Wellesley, Mass., NET1082) into 2.2 mL of reaction buffer.
Following preparation of all reagents, 4 μl of each serially diluted aptamer was added to a separate 96 well plate (the reaction plate). 76 μl of diluted enzyme was added to the corresponding wells containing aptamer. 80 μl of reaction buffer was added to one column of wells to serve as a background control. The diluted substrate and reaction plate were then moved to a room at 37° C. and allowed to equilibrate for 10 minutes. After temperature equilibration, 20 μl of the prepared substrate was added to each well using a 12 channel pipet for a final volume of 100 μl/well, and a final concentration of […] enzyme and 30 nM substrate per well. A column of wells containing enzyme and substrate only was used as a high control. The aptamer/enzyme/substrate reaction was incubated at 37° C. for 15 minutes, and stopped by the addition of 100 μl of quench buffer (100 mM sodium phosphate, pH 7.4, 2 mM EDTA).
To separate the cleavage products, […] and Glutamate, from the substrate, an AG 1-X8, 200-400 mesh, formate resin (BioRad, Hercules, Calif., # 140-1454) was used. The resin was prepared by forming a 1:1 slurry in H2O, and adding 140 μl per 96 well using a Multiscreen filter plate (Multiscreen, 1.2 μm filter plates (Millipore, Billerica, Mass., # MABVN1250)). […] The plate was sealed and read using a Packard Topcount Microplate Scintillation Counter. […]

LNCaP cells (PSMA+) = assay: LNCaP FACS binding assay with fluorescein-labeled aptamers; type: cell-based; details: FACS histogram
Protocol: To prepare aptamers for the FACS assay, PSMA aptamers were serially diluted (0-1 uM) in FACS buffer (1×DPBS w/Ca^++/Mg^++ (Gibco, Carlsbad, Calif.) supplemented with 10 mg/mL salmon sperm DNA & 0.2% Na Azide), in a V-bottom 96 well plate, at the concentrations to be tested. LNCaP and PC-3 cells (ATCC, Manassas, Va.) were harvested with trypsin, and 200,000 cells/well were counted, washed once with 1×DPBS (with Ca^++ and Mg^+) and resuspended in 200 μl of FACS Buffer. The 200 μl of cells in FACS buffer were added to individual wells of a new 96 well plate, pelleted by centrifugation (1300 rpm for 5 minutes), and resuspended in 100 μl of the appropriate concentration of diluted aptamer. FACS buffer, a-PSMA antibody (3C6) (Northwest Biotherapeutics, Bothell, Wash., Cat #: 60-5002) and an irrelevant fluorescein isothiocyanate (“FITC”) mouse IgG1 isotype control antibody (BD Pharmingen, San Diego, Calif., Cat#: 554679) were used as controls. The wells of aptamer/cell mixture were incubated at room temperature for 20-30 minutes.
After incubation, 180 μl of FACS buffer (plus 10 mg/mL ssDNA, and 0.2% Na Azide) was added to each well to quench the reaction and cells were pelleted by centrifugation.
Anti-fluorescein/Oregon Green®, rabbit IgG fraction, Alexa Fluor® 488 conjugate (Molecular Probes, Eugene, Oreg., Cat#: A11090) was diluted 1:100 in FACS buffer (100 μl/well) as the secondary antibody for the aptamer-FITC conjugates and FITC-mouse IgG isotype control. FITC Rat anti-mouse IgG1 (A85-1) (BD Pharmingen, San Diego, Calif., Cat#: 553443) was diluted in 1:100 in FACS Buffer as the secondary for the α-PSMA antibody. After centrifugation, the cell pellets were resuspended in 100 μl of the appropriate diluted secondary antibody, and incubated 10 minutes at room temperature. After incubation, 180 μl of FACS buffer was added to each well to quench the reaction, and cells were pelleted by centrifugation.
A tertiary antibody which recognizes the Alexa Fluor® 488 goat anti-rabbit IgG was prepared to further amplify the Alexa Fluor signal. Alexa Fluor® 488 goat anti-rabbit IgG (H+ L) (Molecular Probes, Eugene, Oreg., Cat#: A11034) was diluted 1:100 in FACS buffer, and the pelleted cells were resupsended in 100 μl of the tertiary antibody and incubated for 10 minutes at room temperature. […]
(§1) Cell samples were analyzed on a FACS Scan machine (Becton Dickinson, San Jose, Calif.) under the following parameters: FSC/SSC, FL-1/FSC, FL-3/FSC. The unstained and/or isotype controls were used to establish gating parameters, and the data was analyzed using Cell Quest Pro software version 5.1.1 (Becton Dickinson Immunocytometry Systems, San Jose, Calif.).

PC-3 cells (PSMA−) = assay: FACS binding assay, control cell line; type: cell-based; details: FACS histogram
Protocol: To prepare aptamers for the FACS assay, PSMA aptamers were serially diluted (0-1 uM) in FACS buffer (1×DPBS w/Ca^++/Mg^++ (Gibco, Carlsbad, Calif.) supplemented with 10 mg/mL salmon sperm DNA & 0.2% Na Azide), in a V-bottom 96 well plate, at the concentrations to be tested. LNCaP and PC-3 cells (ATCC, Manassas, Va.) were harvested with trypsin, and 200,000 cells/well were counted, washed once with 1×DPBS (with Ca^++ and Mg^+) and resuspended in 200 μl of FACS Buffer. The 200 μl of cells in FACS buffer were added to individual wells of a new 96 well plate, pelleted by centrifugation (1300 rpm for 5 minutes), and resuspended in 100 μl of the appropriate concentration of diluted aptamer. FACS buffer, a-PSMA antibody (3C6) (Northwest Biotherapeutics, Bothell, Wash., Cat #: 60-5002) and an irrelevant fluorescein isothiocyanate (“FITC”) mouse IgG1 isotype control antibody (BD Pharmingen, San Diego, Calif., Cat#: 554679) were used as controls. The wells of aptamer/cell mixture were incubated at room temperature for 20-30 minutes. […]
as §1

## CC(=O)O[C@@]12CO[C@@H]1C[C@H](O)[C@@]1(C)C(=O)[C@H](O)C3=C(C)[C@@H](OC(=O)[C@H](O)[C@@H](NC(=O)OC(C)(C)C)c4ccccc4)C[C@@](O)([C@@H](OC(=O)c4ccccc4)[C@H]21)C3(C)C [Taxotere, docetaxel]
[1]
  survival advantage over control group (mitoxantrone and prednisone): approximately 2.5 months

## NH2-mCmGmGmAfCfCmGAAfCAmAmGmGmCfCfUGAfCfUfUfCfUAfUAfCfUAAmGmCmCmUAfCmGfUmUmCmCmG-3T ({NH2}-mCmGmGmAfCfCmGrArAfCrAmAmGmGmCfCfUrGrAfCfUfUfCfUrAfUrAfCfUrArAmGmCmCmUrAfCmGfUmUmCmCmG[invdT]; further chemistry not fully specified) [ARC1113, ribo-containing aptamer based on ARC 591 with fully-stabilized helical stems and a 3′-cap]
[2]
  half life (T1/2) in plasma: 20 h

## mCmGmGmAfCfCmGdAdAfCmAmAmGmGmCfCfU-s-dGmAfCfUfUfCfUmAfUmAfCfUdAmAmGmCmCmUmAfCmGfUmUmCmCmG-3T (mCmGmGmAfCfCmGdAdAfCmAmAmGmGmCfCfU*dGmAfCfUfUfCfUmAfUmAfCfUdAmAmGmCmCmUmAfCmGfUmUmCmCmG[invdT]) [ARC1725, ribo-free version based on ARC591]
PSMA NAALADase activity
  activity in the NAALADase inhibition assay: retained full activity
[2]
  half life (T1/2) in plasma: 11 h

B1: GGGAGGACGAUGCGGACCGAAAAAGACCUGAfCfIUfCfUAfUAfCfUAAGfUfCfUAf CGfTUIJfCfCfCAGAfCGAfCfUfCGfCfCfCGA (nucleic acid)
chain: GGGAGGACGAUGCGGACCGAAAAAGACCUGACUUCUAUACUAAGUCUACGUUCCCAGACGACUCGCCCGA
modifications: 2'-fluoro at CU, RNA at AG, backbone not given here
notes: existing PSMA specific aptamer of rRfY composition from U.S. Ser. No. 09/978,969
LNCaP cells (PSMA+)
  binding to LNCaP (PSMA+) cells: binding to LNCaP (PSMA+) cells
PC-3 cells (PSMA−)
  binding to PC-3 (PSMA−) cells: not to PC-3 (PSMA−) cells
